# “And” between values parts separate entries of the source, which are not always exact repeats. Equal entries are not always repeated. Where two headings read alike, the source gives them in different places. Marks after values point to notes of the source that are not given here.
# Legend:
# [1] = Rectal PK study: IQB4012 gel; assay type: in vivo, pigtailed macaques; conditions: for median drug concentration (min-max), Rectal tissues / median drug concentration (min-max), Rectal fluids: N = 6; for concentration at 2 h / concentration at 4 h / concentration at 24 h: female, pigtailed macaque, other: rectal; for levels in blood plasma: below the LLOQ, data not shown
# [2] = Vaginal PK study: IQB4012 gel; conditions: for concentration at 2 h / concentration at 4 h / concentration at 24 h: female, pigtailed macaque, other: vaginal
# [3] = Release of drug from the gel into a liquid sink; assay type: in vitro ADME; conditions: IQB4012 gel, 1% (w/w) of each drug
# [4] = in vivo
# [5] = rectal gel application, 1 or 4 ml
# [6] = vaginal fluid, distal, 1.5 ml gel
# [7] = vaginal fluid, proximal, 0.5 ml
# [8] = vaginal fluid, proximal, 1.5 ml gel
# [9] = vaginal tissue, distal, 1.5 ml gel
# [10] = vaginal tissue, medial, 1.5 ml gel
# [11] = vaginal tissue, proximal, 0.5 ml
# [12] = vaginal application, below the LLOQ, data not shown
structure (smiles),measurement,setting,value
"C[C@@H](Cn1cnc2c(N)ncnc21)OCP(=O)(O)OP(=O)(O)OP(=O)(O)O [TFV-DP, TFV-diphosphate]","median drug concentration (min-max), Rectal tissues","[1]; 1 ml gel rectally, 4 h",176 ng/g and 176 (BLLOQ-207) ng/g
same,"median drug concentration (min-max), Rectal tissues","[1]; 1 ml gel rectally, 24 h",70 ng/g and 70 (BLLOQ-128) ng/g
same,"median drug concentration (min-max), Rectal tissues","[1]; 4 ml gel rectally, 4 h",47 ng/g and 47 (BLLOQ-480) ng/g
same,"median drug concentration (min-max), Rectal tissues","[1]; 4 ml gel rectally, 24 h",81 ng/g and 81 (BLLOQ-131) ng/g
"C[C@H](Cn1cnc2c(N)ncnc21)OCP(=O)(O)O [TFV, tenofovir]","median drug concentration (min-max), Rectal tissues","[1]; 1 ml gel rectally, 24 h",659 (BLLOQ-3586) ng/g
same,"median drug concentration (min-max), Rectal tissues","[1]; 4 ml gel rectally, 4 h","393 (BLLOQ-11,464) ng/g"
same,concentration at 2 h,"[1]; rectal fluid, 1 ml",3230 ng/mL
same,concentration at 4 h,"[1]; rectal fluid, 1 ml",705 ng/mL
same,concentration at 24 h,"[1]; rectal fluid, 1 ml",132 ng/mL
same,concentration at 2 h,"[1]; rectal fluid, 4 ml",5060 ng/mL
same,concentration at 4 h,"[1]; rectal fluid, 4 ml",864 ng/mL
same,concentration at 24 h,"[1]; rectal fluid, 4 ml",277 ng/mL
same,concentration at 4 h,"[1]; rectal tissue, 1 ml",811 ng/g
same,concentration at 24 h,"[1]; rectal tissue, 1 ml",659 ng/g
same,concentration at 4 h,"[1]; rectal tissue, 4 ml",393 ng/g
same,concentration at 24 h,"[1]; rectal tissue, 4 ml",1410 ng/g
same,concentration at 2 h,"[1]; pigtailed, rectal fluid, 1 ml",3230 ng/mL
same,concentration at 4 h,"[1]; pigtailed, rectal fluid, 1 ml",705 ng/mL
same,concentration at 24 h,"[1]; pigtailed, rectal fluid, 1 ml",132 ng/mL
same,concentration at 2 h,"[1]; pigtailed, rectal fluid, 4 ml",5060 ng/mL
same,concentration at 4 h,"[1]; pigtailed, rectal fluid, 4 ml",864 ng/mL
same,concentration at 24 h,"[1]; pigtailed, rectal fluid, 4 ml",277 ng/mL
same,concentration at 4 h,"[1]; pigtailed, rectal tissue, 1 ml",811 ng/g
same,concentration at 24 h,"[1]; pigtailed, rectal tissue, 4 ml",1410 ng/g
same,levels in blood plasma,[1]; rectal application,< 10 ng/mL
same,concentrations sampled in rectal tissues,[1]; [5],10^1–10^3 ng/g
same,median concentrations in rectal fluids,[1]; [5],10^2–10^3 ng/ml
same,"median drug concentration (min—max), Vaginal fluids, Proximal","[2]; 0.5 ml gel vaginally, 2 h, N = 6","158,146 (BLLOQ^2-3,025,157) ng/ml"
same,concentration at 2 h,"[2]; rectal fluid, 0.5 ml",80 ng/mL
same,concentration at 4 h,"[2]; rectal fluid, 0.5 ml",69 ng/mL
same,concentration at 24 h,"[2]; rectal fluid, 0.5 ml",53 ng/mL
same,concentration at 2 h,"[2]; rectal fluids, 1.5 ml gel",138 ng/mL
same,concentration at 4 h,"[2]; rectal fluids, 1.5 ml gel",156 ng/mL
same,concentration at 24 h,"[2]; rectal fluids, 1.5 ml gel",127 ng/mL
same,concentration at 2 h,"[2]; vaginal fluid, distal, 0.5 ml",232000 ng/mL
same,concentration at 4 h,"[2]; vaginal fluid, distal, 0.5 ml",132000 ng/mL
same,concentration at 24 h,"[2]; vaginal fluid, distal, 0.5 ml",18700 ng/mL
same,concentration at 2 h,"[2]; vaginal fluid, distal, 1.5 ml",37200 ng/mL
same,concentration at 4 h,[2]; [6],153000 ng/mL
same,concentration at 24 h,[2]; [6],57000 ng/mL
same,concentration at 4 h,[2]; [7],124000 ng/mL
same,concentration at 24 h,[2]; [7],48900 ng/mL
same,concentration at 2 h,"[2]; vaginal fluid, proximal, 1.5 ml",30400 ng/mL
same,concentration at 4 h,[2]; [8],54300 ng/mL
same,concentration at 24 h,[2]; [8],18000 ng/mL
same,concentration at 4 h,"[2]; vaginal tissue, distal, 0.5 ml",13400 ng/g
same,concentration at 24 h,"[2]; vaginal tissue, distal, 0.5 ml",5910 ng/g
same,concentration at 4 h,[2]; [9],19200 ng/g
same,concentration at 24 h,[2]; [9],5380 ng/g
same,concentration at 4 h,"[2]; vaginal tissue, medial, 0.5 ml",8860 ng/g
same,concentration at 24 h,"[2]; vaginal tissue, medial, 0.5 ml",3550 ng/g
same,concentration at 4 h,[2]; [10],10200 ng/g
same,concentration at 24 h,[2]; [10],12200 ng/g
same,concentration at 4 h,[2]; [11],4490 ng/g
same,concentration at 24 h,[2]; [11],16900 ng/g
same,concentration at 4 h,"[2]; vaginal tissue, proximal, 1.5 ml gel",35100 ng/g
same,median concentrations in rectal fluids,"[2]; vaginal application of either volume (0.5 or 1.5 ml), over 24 h",≤ 200 ng/mL
same,concentrations in rectal biopsy tissues,[2]; [12],< 1 ng/sample
same,plasma concentrations,[2]; [12],< 10 ng/mL
same,release from the gel into a liquid sink (Franz Cell),[3],82.51 μg/cm ^3h
Cc1cc(C)cc(C(=O)c2c(C(C)C)c(=O)[nH]c(=O)n2CC2CC2)c1 [IQP-0528],median concentrations in rectal fluids,"[1]; 1 ml gel rectally, 2 to 24 h",10^3–10^5 ng/ml
same,"median drug concentration (min-max), Rectal fluids","[1]; 1 ml gel rectally, 2 h","93,375 (2480–420,500) ng/ml"
same,"median drug concentration (min-max), Rectal fluids","[1]; 1 ml gel rectally, 4 h","31,000 (545–873,500) ng/ml"
same,"median drug concentration (min-max), Rectal tissues","[1]; 1 ml gel rectally, 4 h","9087 (BLLOQ^2-15,150) ng/g"
same,"median drug concentration (min-max), Rectal fluids","[1]; 1 ml gel rectally, 24 h","2975 (815–22,900) ng/ml"
same,"median drug concentration (min-max), Rectal tissues","[1]; 1 ml gel rectally, 24 h",127 ^* ng/g
same,"median drug concentration (min-max), Rectal fluids","[1]; 4 ml gel rectally, 2 h","106,500 (54,600–769,000) ng/ml"
same,"median drug concentration (min-max), Rectal fluids","[1]; 4 ml gel rectally, 4 h","53,775 (9570–930,500) ng/ml"
same,"median drug concentration (min-max), Rectal tissues","[1]; 4 ml gel rectally, 4 h","1277 (BLLOQ-51,304) ng/g"
same,"median drug concentration (min-max), Rectal fluids","[1]; 4 ml gel rectally, 24 h","7065 (608–43,750) ng/ml"
same,"median drug concentration (min-max), Rectal tissues","[1]; 4 ml gel rectally, 24 h",566 (BLLOQ-2228) ng/g
same,levels in blood plasma,[1]; rectal application,< 10 ng/mL
same,rectal tissue samples with detectable concentrations,"[1]; rectal application, both gel volumes (1 and 4 ml)",10^2–10^3 ng/g
same,concentrations sampled in rectal tissues,[1]; [5],10^1–10^3 ng/g
same,levels in rectal tissue biopsies,[4],below LLOQ
same,plasma concentrations,[4],< 10 ng/mL
same,release from the gel into a liquid sink (Franz Cell),[3],53.93 μg/cm ^3h
